Experimental data taken from patent US20080114007A1 (priority 2006, published 2008).

Target: CSF-1R (Homo sapiens, UniProt P07333)
Assay: Peptide (non-phosphorylated) assay, fluorescence polarization competition immunoassay
Format: biochemical
Conditions: 0.7 nM CSF-1R, 308 μM SYEGNSYTFIDPTQ peptide, 1 mM ATP, 80 min; mean of at least three determinations; read-out: c-fms Peptide IC50
How it was run: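 Human CSF-1R kinase reaction started with ATP and run 80 min at room temperature, then stopped with EDTA. Phosphopeptide detected by fluorescence polarization competition using anti-phosphotyrosine antibody and PTK green tracer after 30 min. Controls used 4% DMSO, with EDTA added before reaction start for positive controls.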

Sequence of CSF-1R (P07333 20-972): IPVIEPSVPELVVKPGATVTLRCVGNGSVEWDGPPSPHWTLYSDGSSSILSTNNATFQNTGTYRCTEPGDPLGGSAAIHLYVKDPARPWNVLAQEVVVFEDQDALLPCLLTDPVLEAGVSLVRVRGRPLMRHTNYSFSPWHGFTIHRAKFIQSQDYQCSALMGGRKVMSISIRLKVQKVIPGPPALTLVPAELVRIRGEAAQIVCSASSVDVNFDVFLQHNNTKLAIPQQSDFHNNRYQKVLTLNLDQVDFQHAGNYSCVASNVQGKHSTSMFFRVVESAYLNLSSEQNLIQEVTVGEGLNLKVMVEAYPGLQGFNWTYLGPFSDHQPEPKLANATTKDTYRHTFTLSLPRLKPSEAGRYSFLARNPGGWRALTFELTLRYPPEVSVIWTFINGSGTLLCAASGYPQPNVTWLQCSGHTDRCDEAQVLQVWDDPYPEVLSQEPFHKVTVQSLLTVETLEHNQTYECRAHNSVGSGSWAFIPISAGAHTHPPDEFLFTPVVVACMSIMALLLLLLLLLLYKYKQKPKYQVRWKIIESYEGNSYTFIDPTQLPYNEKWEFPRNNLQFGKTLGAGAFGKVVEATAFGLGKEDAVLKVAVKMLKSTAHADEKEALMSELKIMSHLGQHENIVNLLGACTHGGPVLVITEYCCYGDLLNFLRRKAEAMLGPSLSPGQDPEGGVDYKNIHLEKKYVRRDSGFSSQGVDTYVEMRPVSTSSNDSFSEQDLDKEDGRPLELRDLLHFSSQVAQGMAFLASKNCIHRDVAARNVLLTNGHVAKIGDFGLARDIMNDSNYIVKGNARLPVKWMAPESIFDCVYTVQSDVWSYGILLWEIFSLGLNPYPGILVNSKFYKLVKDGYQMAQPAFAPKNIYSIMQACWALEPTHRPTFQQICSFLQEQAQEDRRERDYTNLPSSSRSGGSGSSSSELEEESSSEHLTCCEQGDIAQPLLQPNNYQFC

Structure (SMILES) | IC50 [nM]
CCc1ccc(-n2cc(C(=O)NOC)c(=O)c3cnc(Nc4cccc(OC5CN6CCC5CC6)c4)nc32)cc1 (centres unmarked) [Cpd 247, 2-[3-(1-aza-bicyclo[2.2.2]oct-3-yloxy)-phenylamino]-8-(4-ethyl-phenyl)-5-oxo-5,8-dihydro-pyrido[2,3-d]pyrimidine-6-carboxylic acid methoxy-amide] | 0.59
CONC(=O)c1cn(-c2ccc3c(c2)CCC3)c2nc(Nc3ccc(C4CCN(CC(F)(F)C(F)(F)F)CC4)cc3)ncc2c1=O [Cpd 293, 8-indan-5-yl-5-oxo-2-{4-[1-(2,2,3,3,3-pentafluoro-propyl)-piperidin-4-yl]-phenylamino}-5,8-dihydro-pyrido[2,3-d]pyrimidine-6-carboxylic acid methoxy-amide] | 2.9
CCONC(=O)c1cn(C2CCCC2)c2nc(Nc3ccc(CCN4CCCC4)cc3)ncc2c1=O [Cpd 40, 8-cyclopentyl-5-oxo-2-[4-(2-pyrrolidin-1-yl-ethyl)-phenylamino]-5,8-dihydro-pyrido[2,3-d]pyrimidine-6-carboxylic acid ethoxy-amide] | 6.8
CCc1ccc(-n2cc(C(=O)NOC)c(=O)c3cnc(Nc4ccc(OC5CCN(CC(F)(F)F)CC5)cc4)nc32)cc1 [Cpd 318, 8-(4-ethyl-phenyl)-5-oxo-2-{4-[1-(2,2,2-trifluoro-ethyl)-piperidin-4-yloxy]-phenylamino}-5,8-dihydro-pyrido[2,3-d]pyrimidine-6-carboxylic acid methoxy-amide] | 5.3
CCc1ccc(-n2cc(C(=O)NOC)c(=O)c3cnc(Nc4ccc(OCCCOC)c(OCCCOC)c4)nc32)cc1 [Cpd 323, 2-[3,4-bis-(3-methoxy-propoxy)-phenylamino]-8-(4-ethyl-phenyl)-5-oxo-5,8-dihydro-pyrido[2,3-d]pyrimidine-6-carboxylic acid methoxy-amide] | 1
CCc1ccc(-n2cc(C(=O)NOC)c(=O)c3cnc(Nc4ccc(-c5cccc(OC)c5)cc4)nc32)cc1 [Cpd 299, 8-(4-ethyl-phenyl)-2-(3′-methoxy-biphenyl-4-ylamino)-5-oxo-5,8-dihydro-pyrido[2,3-d]pyrimidine-6-carboxylic acid methoxy-amide] | 32
CCc1ccc(-n2cc(C(=O)NOC(CC)CC)c(=O)c3cnc(Nc4ccc(CCN5CCN(C)CC5)cc4)nc32)cc1 [Cpd 93, 8-(4-ethyl-phenyl)-2-{4-[2-(4-methyl-piperazin-1-yl)-ethyl]-phenylamino}-5-oxo-5,8-dihydro-pyrido[2,3-d]pyrimidine-6-carboxylic acid (1-ethyl-propoxy)-amide] | 4.9
CCc1ccc(-n2cc(C(=O)NOC)c(=O)c3cnc(Nc4ccc(CCN5CCCC5=O)cc4)nc32)cc1 [Cpd 54, 8-(4-ethyl-phenyl)-5-oxo-2-{4-[2-(2-oxo-pyrrolidin-1-yl)-ethyl]-phenylamino}-5,8-dihydro-pyrido[2,3-d]pyrimidine-6-carboxylic acid methoxy-amide] | 1.8
CONC(=O)c1cn(-c2ccc3c(c2)CCC3)c2nc(Nc3cccc(N4CCN(C(C)=O)CC4)c3)ncc2c1=O [Cpd 196, 2-[3-(4-acetyl-piperazin-1-yl)-phenylamino]-8-indan-5-yl-5-oxo-5,8-dihydro pyrido[2,3-d]pyrimidine-6-carboxylic acid methoxy-amide] | 1.7
CCc1ccc(-n2cc(C(=O)NOC(C)C)c(=O)c3cnc(Nc4ccc(C5CCN(S(C)(=O)=O)CC5)cc4)nc32)cc1 [Cpd 60, 8-(4-ethyl-phenyl)-2-[4-(1-methanesulfonyl-piperidin-4-yl)-phenylamino]-5-oxo-5,8-dihydro-pyrido[2,3-d]pyrimidine-6-carboxylic acid isopropoxy-amide] | 7
CONC(=O)c1cn(-c2ccc3c(c2)CCC3)c2nc(Nc3cccc(OC4CN5CCC4CC5)c3)ncc2c1=O (centres unmarked) [Cpd 267, 2-[3-(1-aza-bicyclo[2.2.2]oct-3-yloxy)-phenylamino]-8-indan-5-yl-5-oxo-5,8-dihydro-pyrido[2,3-d]pyrimidine-6-carboxylic acid methoxy-amide] | 0.42
CCONC(=O)c1cn(C2CCCCC2)c2nc(Nc3ccc(C4CCN(C)CC4)cc3)ncc2c1=O [Cpd 141, 8-cyclohexyl-2-[4-(1-methyl-piperidin-4-yl)-phenylamino]-5-oxo-5,8-dihydro-pyrido[2,3-d]pyrimidine-6-carboxylic acid ethoxy-amide] | 1.3
CONC(=O)c1cn(-c2ccc3c(c2)CCC3)c2nc(Nc3ccc(C4CCN(CC(=O)NS(C)(=O)=O)CC4)cc3)ncc2c1=O [Cpd 87, 8-indan-5-yl-2-{4-[1-(2-methanesulfonylamino-2-oxo-ethyl)-piperidin-4-yl]-phenylamino}-5-oxo-5,8-dihydro-pyrido[2,3-d]pyrimidine-6-carboxylic acid methoxy-amide] | 2.4
CONC(=O)c1cn(-c2ccc3c(c2)CCC3)c2nc(Nc3ccc(CCN4CCN(C(C)=O)CC4)cc3)ncc2c1=O [Cpd 145, 2-{4-[2-(4-acetyl-piperazin-1-yl)-ethyl]-phenylamino}-8-indan-5-yl-5-oxo-5,8-dihydro-pyrido[2,3-d]pyrimidine-6-carboxylic acid methoxy-amide] | 1.2
CONC(=O)c1cn(-c2ccc3c(c2)CCC3)c2nc(Nc3cccc(N4CC(C)NC(C)C4)c3)ncc2c1=O (centres unmarked) [Cpd 195, 2-[3-(3,5-dimethyl-piperazin-1-yl)-phenylamino]-8-indan-5-yl-5-oxo-5,8-dihydro-pyrido[2,3-d]pyrimidine-6-carboxylic acid methoxy-amide] | 0.96
CONC(=O)c1cn(C2CCCCC2)c2nc(Nc3ccc(CCN4CCOCC4)cc3)ncc2c1=O [Cpd 20, 8-cyclohexyl-2-[4-(2-morpholin-4-yl-ethyl)-phenylamino]-5-oxo-5,8-dihydro-pyrido[2,3-d]pyrimidine-6-carboxylic acid methoxy-amide] | 3
CONC(=O)c1cn(-c2ccc3c(c2)CCC3)c2nc(Nc3ccc(N4CCC[C@H]4CO)cc3)ncc2c1=O [Cpd 7, (S)-2-[4-(2-hydroxymethyl-pyrrolidin-1-yl)-phenylamino]-8-indan-5-yl-5-oxo-5,8-dihydro-pyrido[2,3-d]pyrimidine-6-carboxylic acid methoxy-amide] | 1.7
CCc1ccc(-n2cc(C(=O)NOC)c(=O)c3cnc(Nc4ccccc4)nc32)cc1 [Cpd 316, 8-(4-ethyl-phenyl)-5-oxo-2-phenylamino-5,8-dihydro-pyrido[2,3-d]pyrimidine-6-carboxylic acid methoxy-amide] | 1.8

Next, values leading:

IC50 [nM] | Structure (SMILES)
0.8 | CONC(=O)c1cn(-c2cccc(C(F)(F)F)c2)c2nc(Nc3ccc(C4CCN(C)CC4)cc3)ncc2c1=O
0.9 | CCc1ccc(-n2cc(C(=O)NOC)c(=O)c3cnc(Nc4ccc5c(ccn5C)c4)nc32)cc1 [Cpd 290, 8-(4-ethyl-phenyl)-2-(1-methyl-1H-indol-5-ylamino)-5-oxo-5,8-dihydro-pyrido[2,3-d]pyrimidine-6-carboxylic acid methoxy-amide]
0.5 | CONC(=O)c1cn(-c2ccc3c(c2)CCC3)c2nc(Nc3cccc(N4CCN(C)CC4)c3)ncc2c1=O [Cpd 324, 8-indan-5-yl-2-[3-(4-methyl-piperazin-1-yl)-phenylamino]-5-oxo-5,8-dihydro-pyrido[2,3-d]pyrimidine-6-carboxylic acid methoxy-amide]
0.4 | CCN1CCC(c2ccc(Nc3ncc4c(=O)c(C(=O)NOC)cn(C5CCC(C)(C)CC5)c4n3)cc2)CC1 [Cpd 208, 8-(4,4-dimethyl-cyclohexyl)-2-[4-(1-ethyl-piperidin-4-yl)-phenylamino]-5-oxo-5,8-dihydro-pyrido[2,3-d]pyrimidine-6-carboxylic acid methoxy-amide]
0.38 | CONC(=O)c1cn(-c2ccc3c(c2)CCC3)c2nc(Nc3ccc(C4CCCCN4)cc3)ncc2c1=O (centres unmarked) [Cpd 246, 8-indan-5-yl-5-oxo-2-(4-piperidin-2-yl-phenylamino)-5,8-dihydro-pyrido[2,3-d]pyrimidine-6-carboxylic acid methoxy-amide]
0.9 | CCc1ccc(-n2cc(C(=O)NOC)c(=O)c3cnc(Nc4ccc(C5CCN(CC(=O)O)CC5)cc4)nc32)cc1 [Cpd 94, (4-{4-[8-(4-ethyl-phenyl)-6-methoxycarbamoyl-5-oxo-5,8-dihydro-pyrido[2,3-d]pyrimidin-2-ylamino]-phenyl}-piperidin-1-yl)-acetic acid]
0.61 | CCc1ccc(-n2cc(C(=O)NOC)c(=O)c3cnc(Nc4ccc(CCN5CCC5)cc4)nc32)cc1 [Cpd 260, 2-[4-(2-azetidin-1-yl-ethyl)-phenylamino]-8-(4-ethyl-phenyl)-5-oxo-5,8-dihydro-pyrido[2,3-d]pyrimidine-6-carboxylic acid methoxy-amide]
0.71 | CONC(=O)c1cn(-c2ccc3c(c2)CCC3)c2nc(Nc3ccc(C4CCN(C)CC4(F)F)cc3)ncc2c1=O (centres unmarked) [Cpd 237, 2-[4-(3,3-difluoro-1-methyl-piperidin-4-yl)-phenylamino]-8-indan-5-yl-5-oxo-5,8-dihydro-pyrido[2,3-d]pyrimidine-6-carboxylic acid methoxy-amide]
0.6 | CCc1ccc(-n2cc(C(=O)NOC)c(=O)c3cnc(Nc4ccc(C5CCN(CCCO)CC5)cc4)nc32)cc1 [Cpd 185, 8-(4-ethyl-phenyl)-2-{4-[1-(3-hydroxy-propyl)-piperidin-4-yl]-phenylamino}-5-oxo-5,8-dihydro-pyrido[2,3-d]pyrimidine-6-carboxylic acid methoxy-amide]
0.88 | CONC(=O)c1cn(-c2ccc3c(c2)CCC3)c2nc(Nc3ccc(CCN4CCCC(F)C4)cc3)ncc2c1=O (centres unmarked) [Cpd 256, 2-{4-[2-(3-fluoro-piperidin-1-yl)-ethyl]-phenylamino}-8-indan-5-yl-5-oxo-5,8-dihydro-pyrido[2,3-d]pyrimidine-6-carboxylic acid methoxy-amide]
0.94 | COCCOc1ccc(Nc2ncc3c(=O)c(C(=O)NOC)cn(-c4ccc5c(c4)CCC5)c3n2)cc1 [Cpd 258, 8-indan-5-yl-2-[4-(2-methoxy-ethoxy)-phenylamino]-5-oxo-5,8-dihydro-pyrido[2,3-d]pyrimidine-6-carboxylic acid methoxy-amide]
